Assay results taken from patent US9296690B2, “Method for inhibiting differentiation of osteoclast and pharmaceutical composition comprising thereof” (Metacine, Inc., priority 2012, dated 2016).

Key:
[1] = biological target: T1, human integrin αyβ3 (Homo sapiens, UniProt P05106+P06756); experiment: Inhibition activity of osteopontin-integrin binding (protein chip); settings: n=6
T1 construct: purchased Milipore
Procedure: After the human integrin αyβ3 (100 μg/ml, Milipore) was fixed to the protein chip (PeproTech), the human recombinant OPN (40 μg/ml, PeproTech) molecule coupled with Cy5-fluorescent was reacted for 1 hour. Echistatin molecule (40 μg/ml, Sigma-Aldrich) was used as a positive control. The samples were simultaneously treated to conduct a comparative analysis for the binding inhibitory effect thereof. Finally, the strength of luminescence is scanned by using image analysis scanner and analyzed to the GraphPad Prism 4 software. […] The binding inhibitory activity of compound 4e of the invention was about 3 times higher than that of ZA (n=6)(FIG. 5).

[2] = biological target: T2, human recombinant sRNAK receptor (Homo sapiens, UniProt Q9Y6Q6); experiment: Inhibition activity of RANK receptor binding (protein chip, sRANK ligand); settings: n=6
T2 construct: human recombinant sRNAK receptor molecule; purchased PeproTech
T2 sequence (Q9Y6Q6 30-212 limits assumed): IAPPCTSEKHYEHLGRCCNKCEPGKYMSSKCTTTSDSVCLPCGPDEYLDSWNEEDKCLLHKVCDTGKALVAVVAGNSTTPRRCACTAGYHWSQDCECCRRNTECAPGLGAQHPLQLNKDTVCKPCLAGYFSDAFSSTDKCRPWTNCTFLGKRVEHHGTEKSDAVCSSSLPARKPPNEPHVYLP
Procedure: After the human recombinant sRNAK receptor molecule (100 μg/ml, PeproTech) was fixed to the protein chip (PeproTech), human recombinant sRANK ligand (10 μg/ml, PeproTech) was treated and incubated for 1 hour. OPG molecule was used as a positive control, and the compound and OPG are simultaneously treated. A comparative analysis was conducted to compare the binding inhibition effect of the compound using OPG as a control. Mouse anti-human sRANK ligand monoclonal antibody coupled with Cy5-fluorescent (1.0 μg/ml, PeproTech) was treated for 30 minutes, and scanning the strength of luminescence by using image analysis scanner and analyzed to the GraphPad Prism 4 software. Out of the above stated compounds, compound 4e and ZA were comparatively analyzed. […] That of the compound 4e was 46.70%.

[3] = test system: NF-kappa B; experiment: Inhibition of NF-kappa B in RAW264.7 cells; assay type: cell-based, mouse; settings: 10 μM, 12 hours, then ALLN and RANKL 30 minutes
From the text: It is confirmed that the compound of 4e is suppressed the mechanism of NF-kappa B 2 times more than ZA (FIG. 3)

[4] = test system: RAW 264.7 cell; experiment: Inhibition effect on osteoclast differentiation (RANKL-stimulated RAW 264.7 cells, TRAP stain, osteoclast count); assay type: cell-based, mouse; settings: RAW 264.7 + RANKL; for osteoclast differentiation degree (number of cells differentiated to osteoclasts): 7 days, osteoclasts with more than 4 nuclei, two values per concentration, control 51.5
Procedure: RAW 264.7 cell, a mouse macrophage/monocyte cell line which can be differentiated in various forms depends on its surrounding environments and stimuli, is differentiated to multinucleated osteoclast by the stimulus of RANKL (100 ng/ml). Inhibition effect of each compound on osteoclast differentiation was analyzed by comparing the degree of osteoclast differentiation when RAW 264.7 cell was treated with RANKL and the subject each compound simultaneously.
Inhibition activities of osteoclast differentiation in respect of compounds 4a, 4b, 4c, 4d, 4e, 4f, 4 g, 4 h, 4i, 4j, 4k, 4l, 4m, 4n, 4o, 7a, 7b, 7c, and 7d were tested. Macrophage/monocyte RAW 264.7 cell was used as a cell and 1.5×10^3 cells were seeded in a 96 well plate. The synthesized compound and zoledronic acid as a control material were dissolved in 10% DMSO aqueous solution and treated to cells according to each concentration […].
After pre-treating each compound for 6 hours and then, treating RANKL, the incubation was carried out for 7 days in a 5% CO2 incubator. To observe osteoclasts well, they were stained by TRAP (tartrate resistance acid phosphatase) stain method. The number of cells differentiated to osteoclasts was counted and then, a comparative analysis was conducted for the degree of each compound's osteoclast differentiation.
Only the osteoclasts containing nucleus number more than 4 were only counted as effective analysis targets in both control and experiment groups (See FIGS. 1 and 2).

T1 sequence (P06756 31-889 limits assumed): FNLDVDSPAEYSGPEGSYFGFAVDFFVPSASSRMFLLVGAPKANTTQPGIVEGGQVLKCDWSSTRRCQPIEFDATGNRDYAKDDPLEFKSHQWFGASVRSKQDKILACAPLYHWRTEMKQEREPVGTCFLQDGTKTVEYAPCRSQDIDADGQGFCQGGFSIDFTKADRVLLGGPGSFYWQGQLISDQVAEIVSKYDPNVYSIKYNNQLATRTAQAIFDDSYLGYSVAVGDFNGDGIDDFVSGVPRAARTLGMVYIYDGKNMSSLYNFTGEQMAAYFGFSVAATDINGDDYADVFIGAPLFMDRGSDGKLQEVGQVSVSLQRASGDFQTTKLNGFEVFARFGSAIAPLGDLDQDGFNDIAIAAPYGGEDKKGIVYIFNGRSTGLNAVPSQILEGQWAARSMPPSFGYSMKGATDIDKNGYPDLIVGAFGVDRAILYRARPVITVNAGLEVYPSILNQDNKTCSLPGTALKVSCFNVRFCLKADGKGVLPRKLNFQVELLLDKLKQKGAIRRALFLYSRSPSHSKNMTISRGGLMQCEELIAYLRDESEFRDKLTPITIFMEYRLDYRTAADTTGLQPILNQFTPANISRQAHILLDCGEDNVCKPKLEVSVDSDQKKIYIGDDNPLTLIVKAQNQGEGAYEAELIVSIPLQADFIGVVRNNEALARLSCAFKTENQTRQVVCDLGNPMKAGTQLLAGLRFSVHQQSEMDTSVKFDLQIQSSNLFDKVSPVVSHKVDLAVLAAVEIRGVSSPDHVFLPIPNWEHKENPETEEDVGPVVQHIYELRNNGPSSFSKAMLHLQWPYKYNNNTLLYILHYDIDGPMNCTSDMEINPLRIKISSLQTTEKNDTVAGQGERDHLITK
T1 sequence (P06756 891-1048 partner limits assumed): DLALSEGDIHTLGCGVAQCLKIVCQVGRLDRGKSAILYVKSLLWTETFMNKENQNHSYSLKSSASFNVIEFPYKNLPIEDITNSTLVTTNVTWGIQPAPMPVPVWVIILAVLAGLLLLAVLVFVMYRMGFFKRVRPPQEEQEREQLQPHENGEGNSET
T1 sequence (P05106 27-788): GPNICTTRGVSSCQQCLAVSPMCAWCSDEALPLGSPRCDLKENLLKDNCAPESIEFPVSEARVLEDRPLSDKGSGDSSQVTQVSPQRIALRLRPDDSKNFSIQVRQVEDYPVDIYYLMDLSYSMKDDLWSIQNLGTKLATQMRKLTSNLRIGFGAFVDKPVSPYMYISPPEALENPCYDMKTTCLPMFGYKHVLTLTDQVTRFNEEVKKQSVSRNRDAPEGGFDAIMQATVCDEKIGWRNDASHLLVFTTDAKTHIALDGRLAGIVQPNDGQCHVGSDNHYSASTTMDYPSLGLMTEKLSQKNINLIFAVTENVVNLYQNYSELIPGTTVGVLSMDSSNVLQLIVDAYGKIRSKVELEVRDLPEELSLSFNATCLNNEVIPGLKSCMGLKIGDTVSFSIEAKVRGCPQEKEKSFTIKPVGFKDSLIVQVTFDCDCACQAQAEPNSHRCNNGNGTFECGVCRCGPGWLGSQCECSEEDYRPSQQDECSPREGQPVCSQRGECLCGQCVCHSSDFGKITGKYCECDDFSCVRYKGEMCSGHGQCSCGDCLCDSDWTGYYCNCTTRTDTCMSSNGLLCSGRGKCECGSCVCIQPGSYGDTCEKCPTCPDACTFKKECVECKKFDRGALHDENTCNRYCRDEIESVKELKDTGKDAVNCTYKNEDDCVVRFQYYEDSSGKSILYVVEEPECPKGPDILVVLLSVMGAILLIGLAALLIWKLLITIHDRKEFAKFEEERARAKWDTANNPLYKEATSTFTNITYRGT

O=C1C(c2ccccc2)=C(c2ccccc2)C(=O)N1CCc1ccc(F)cc1 [Compound 4t, 1-(4-fluorophenethyl)-3,4-diphenyl-1H-pyrrole-2,5-dione]
melting point: 153 to 154 °C

O=C1C(c2ccccc2)=C(c2ccccc2)C(=O)N1c1ccccc1C(F)(F)F [Compound 4f, 3,4-diphenyl-1-(2-(trifluoromethyl)phenyl)-1H-pyrrole-2,5-dione]
melting point: 152 to 153 °C

Echistatin [reference compound]
binding inhibitory rate with integrin molecule (OPN-integrin) [1]: 51.75%

O=C(O)c1cc(N2C(=O)C(c3ccccc3)=C(c3ccccc3)C2=O)ccc1O [Compound 4i, 5-(2,5-dioxo-3,4-diphenyl-2,5-dihydro-1H-pyrrol-1-yl)-2-hydroxybenzoic acid]
melting point: 249 to 250 °C

O=P(O)(O)C(O)(Cn1ccnc1)P(=O)(O)O [ZA, zoledronic acid, reference compound]
binding inhibitory activity upon to RANK receptor [2]: 27.55% | binding inhibitory rate with integrin molecule (OPN-integrin) [1]: 8.65%

O=C1C(c2ccccc2)=C(c2ccccc2)C(=O)N1c1ccc(Cl)cc1 [Compound 4e, 1-(4-chlorophenyl)-3,4-diphenyl-1H-pyrrole-2,5-dione]
suppression of the mechanism of NF-kappa B relative to ZA [3]: 2 times | inhibition effect on osteoclast differentiation (in words) [4]: more superior inhibition effect on osteoclast differentiation than the control group of zoledronic acid | binding inhibitory activity upon to RANK receptor [2]: 46.70% | binding inhibitory activity upon to RANK receptor relative to ZA [2]: about 1.7 times | OPN-integrin binding inhibitory activity relative to ZA [1]: about 3 times | binding inhibitory rate with integrin molecule (OPN-integrin) [1]: 26.45%

O=C1C(c2ccccc2)=C(c2ccccc2)C(=O)N1CCc1ccccc1F [Compound 4r, 1-(2-fluorophenethyl)-3,4-diphenyl-1H-pyrrole-2,5-dione]
melting point: 111 to 112 °C

CC(C)c1cccc(C(C)C)c1N1C(=O)C(c2ccccc2)=C(c2ccccc2)C1=O [Compound 4a, 1-(2,6-diisopropylphenyl)-3,4-diphenyl-1H-pyrrole-2,5-dione]
melting point: 233 to 234 °C

O=C1C(c2ccccc2)=C(c2ccccc2)C(=O)N1C1CCCCC1 [Compound 4g, 1-cyclohexyl-3,4-diphenyl-1H-pyrrole-2,5-dione]
melting point: 159 to 160 °C

O=C1C(c2ccccc2)=C(c2ccccc2)C(=O)N1CCc1cccc(F)c1 [Compound 4s, 1-(3-fluorophenethyl)-3,4-diphenyl-1H-pyrrole-2,5-dione]
melting point: 129 to 130 °C

OPG: OPG (osteoprotegrin) molecule, RANKL antagonist, used as a positive control [reference compound]
binding inhibitory activity upon to RANK receptor [2]: 83.65%

O=C1C(c2ccccc2)=C(c2ccccc2)C(=O)N1c1cccc(Cl)c1 [Compound 4d, 1-(3-chlorophenyl)-3,4-diphenyl-1H-pyrrole-2,5-dione]
melting point: 144 to 145 °C

O=C1C(c2ccccc2)=C(c2ccccc2)C(=O)N1c1cccc(F)c1 [Compound 4k, 1-(3-fluorophenyl)-3,4-diphenyl-1H-pyrrole-2,5-dione]
osteoclast differentiation degree (number of cells differentiated to osteoclasts) ([4]; 0.5 μM): 40 | osteoclast differentiation degree (number of cells differentiated to osteoclasts) ([4]; 1 μM): 25 | osteoclast differentiation degree (number of cells differentiated to osteoclasts) ([4]; 5 μM): 40 | osteoclast differentiation degree (number of cells differentiated to osteoclasts) ([4]; 10 μM): 28 | melting point: 157 to 158 °C

O=C1C(c2ccccc2)=C(c2ccccc2)C(=O)N1c1ccccc1Cl [Compound 4c, 1-(2-chlorophenyl)-3,4-dipheyl-1H-pyrrole-2,5-dione]
melting point: 213 to 214 °C

O=C1C(c2ccccc2)=C(c2ccccc2)C(=O)N1Cc1ccccc1F [Compound 4n, 1-(2-fluorobenzyl)-3,4-diphenyl-1H-pyrrole-2,5-dione]
melting point: 113 to 114 °C

O=C1C(c2ccccc2)=C(c2ccccc2)C(=O)N1Cc1cccc(F)c1 [Compound 4o, 1-(3-fluorobenzyl)-3,4-diphenyl-1H-pyrrole-2,5-dione]
melting point: 107 to 108 °C
